Assay results reported in US7547690B2, “Compounds for the treatment of Hepatitis C” (Bristol-Myers Squibb Company, priority 2007, dated 2009).
Like-named read-outs stand apart in the source and are kept apart here.

Tests used:
HCV replicon cells = assay: HCV replicon FRET / luciferase assay; format: cell-based; conditions: 50% reduction in FRET or luciferase activity in HCV replicon cells, read-out: EC50
Description: FRET Assay Preparation. The HCV FRET screening assay was performed in 96-well cell culture plates. The FRET peptide (Anaspec, Inc.) (Taliani et al., Anal. Biochem. 1996, 240, 60-67) contains a fluorescence donor, EDANS, near one end of the peptide and an acceptor, DABCYL, near the other end. The fluorescence of the peptide is quenched by […] resonance energy transfer (RET) between the donor and the acceptor, but as the NS3 protease cleaves the peptide the products are released from RET quenching and the fluorescence of the donor becomes apparent. The assay reagent was made as follows: 5× cell Luciferase cell culture lysis reagent from Promega (#E153A) diluted to 1× with dH2O, NaCl added to 150 mM final, the FRET peptide diluted to 20 μM final from a 2 mM stock.
To prepare plates, HCV replicon cells, with or without a Renilla luciferase reporter gene, were trypsinized and plated in a 96-well plate with titrated test compounds added in columns 3 through 12; columns 1 and 2 contained a control compound (HCV control inhibitor), and the bottom row contained cells with DMSO only. The plates were then placed in a CO2 incubator at 37° C.
Assays. Subsequent to addition of the test compounds described above (FRET Assay Preparation), at various times the plate was removed and Alamar blue solution (Trek Diagnostics, #00-100) was added to measure cellular toxicity. After reading in a Cytoflour 4000 instrument (PE Biosystems), plates were rinsed with PBS and then used for FRET assay by the addition of 30 ul of the FRET peptide assay reagent described above (FRET Assay Preparation) per well. The plate was then placed into the Cytoflour 4000 instrument which had been set to 340 excite/490 emission, automatic mode for up to 20 cycles and the plate read in a kinetic mode. Typically, the signal to noise using an endpoint analysis after the reads was at least three-fold. Alternatively, after Alamar blue reading, plates were rinsed with PBS, then used for luciferase assay using the Promega Dual-Glo Luciferase Assay System or the Promega EnduRen Live Cell Substrate assay.
Compound analysis was performed by quantification of the relative HCV replicon inhibition and the relative cytotoxicity values. To calculate cytoxicity values, the average Alamar Blue fluorescence signals from the control wells were set as 100% non-toxic. The individual signals in each of the compound test wells were then divided by the average control signal and multiplied by 100% to determine […]. To calculate the HCV replicon inhibition values, an average background value was obtained from the two wells containing the highest amount of HCV control inhibitor at the end of the assay period. These numbers were similar to those obtained from naïve Huh-7 cells. The background numbers were then subtracted from the average signal obtained from the control wells and this number was used as 100% activity. The individual signals in each of the compound test wells were then divided by the averaged control values after background subtraction and multiplied by 100% to determine percent activity. EC50 values were calculated as the concentration which caused a 50% reduction in FRET or luciferase activity. The two numbers generated for the compound plate, percent cytoxicity and percent activity, were used to determine compounds of interest for further analysis.

HCV NS5B = target: T1, HCV NS5B (Hepatitis C virus genotype 1b, UniProt Q9WMX2); assay: HCV NS5B RdRp enzyme assay (standard / modified); format: biochemical; conditions: HCV RdRp genotype 1b; standard or modified assay not specified; read-out: IC50
T1 construct: The protein was expressed with an 18 amino acid C-terminal truncation to enhance the solubility; made in house; host or cells: E. coli BL21(DE3)
Description: HCV NS5B RdRp cloning, expression, and purification. The cDNA encoding the NS5B protein of HCV, genotype 1b, was cloned into the pET21a expression vector. The protein was expressed with an 18 amino acid C-terminal truncation to enhance the solubility. The E. coli competent cell line BL21(DE3) was used for expression of the protein. Cultures were grown at 37° C. for ˜4 hours until the cultures reached an optical density of 2.0 at 600 nm. The cultures were cooled to 20° C. and induced with 1 mM IPTG. Fresh ampicillin was added to a final concentration of 50 μg/ml and the cells were grown overnight at 20° C.
Cell pellets (3 L) were lysed for purification to yield 15-24 mgs of purified NS5B. The lysis buffer consisted of 20 mM Tris-HCl, pH 7.4, 500 mM NaCl, 0.5% triton X-100, 1 mM DTT, 1 mM EDTA, 20% glycerol, 0.5 mg/ml lysozyme, 10 mM MgCl2, 15 ug/ml deoxyribonuclease I, and Complete TM protease inhibitor tablets (Roche). After addition of the lysis buffer, frozen cell pellets were resuspended using a tissue homogenizer. To reduce the viscosity of the sample, aliquots of the lysate were sonicated on ice using a microtip attached to a Branson sonicator. The sonicated lysate was centrifuged at 100,000×g for 1 hr at 4° C. and filtered through a 0.2 μm filter unit (Corning).
The protein was purified using two sequential chromatography steps: Heparin sepharose CL-6B and polyU sepharose 4B (Pharmacia). The chromatography buffers were identical to the lysis buffer but contained no lysozyme, deoxyribonuclease I, MgCl2 or protease inhibitor and the NaCl concentration of the buffer was adjusted according to the requirements for charging the protein onto the column. Each column was eluted with a NaCl gradient which varied in length from 5-50 column volumes depending on the column type. After the final chromatography step, the resulting purity of the enzyme is >90% based on SDS-PAGE analysis. The enzyme was aliquoted and stored at −80° C.
Standard HCV NS5B RdRp enzyme assay. HCV RdRp genotype 1b assays were run in a final volume of 60 μl in 96 well plates (Corning 3600). The assay buffer is composed of 20 mM Hepes, pH 7.5, 2.5 mM KCl, 2.5 mM MgCl2, 1 mM DTT, 1.6 U RNAse inhibitor (Promega N2515), 0.01 mg/ml BSA (Sigma B6917), and 2% glycerol. All compounds were serially diluted (3-fold) in DMSO and diluted further in water such that the final concentration of DMSO in the assay was 2%. HCV RdRp genotype 1b enzyme was used at a final concentration of 28 nM. A polyA template was used at 6 nM, and a biotinylated oligo-dT12 primer was used at 180 nM final concentration. Template was obtained commercially (Amersham 27-4110). Biotinylated primer was prepared by Sigma Genosys. 3H-UTP was used at 0.6 μCi (0.29 μM total UTP). Reactions were initiated by the addition of enzyme, incubated at 30 ° C. for 60 min, and stopped by adding 25 μl of 50 mM EDTA containing SPA beads (4 μg/μl, Amersham RPNQ 0007). Plates were read on a Packard Top Count NXT after >1 hr incubation at room temperature.
Modified HCV NS5B RdRp enzyme assay. A modified enzyme assay was performed essentially as described for the standard enzyme assay except for the following: The biotinylated oligo dT12 primer was precaptured on streptavidin-coated SPA beads by mixing primer and beads in assay buffer and incubating at room temperature for one hour. Unbound primer was removed after centrifugation. The primer-bound beads were resuspended in 20 mM Hepes buffer, pH 7.5 and used in the assay at final concentrations of 20 nM primer and 0.67 μg/μl beads. Order of addition in the assay: enzyme (1.75 nM) was added to diluted compound followed by the addition of a mixture of template (0.36 nM), 3H-UTP (0.6 μCi, 0.29 μM), and primer-bound beads, to initiate the reaction; concentrations given are final. Reactions were allowed to proceed for 4 hours at 30° C.
IC50 values for compounds were determined using seven different [I]. […]

T1 sequence (Q9WMX2 2420-2992): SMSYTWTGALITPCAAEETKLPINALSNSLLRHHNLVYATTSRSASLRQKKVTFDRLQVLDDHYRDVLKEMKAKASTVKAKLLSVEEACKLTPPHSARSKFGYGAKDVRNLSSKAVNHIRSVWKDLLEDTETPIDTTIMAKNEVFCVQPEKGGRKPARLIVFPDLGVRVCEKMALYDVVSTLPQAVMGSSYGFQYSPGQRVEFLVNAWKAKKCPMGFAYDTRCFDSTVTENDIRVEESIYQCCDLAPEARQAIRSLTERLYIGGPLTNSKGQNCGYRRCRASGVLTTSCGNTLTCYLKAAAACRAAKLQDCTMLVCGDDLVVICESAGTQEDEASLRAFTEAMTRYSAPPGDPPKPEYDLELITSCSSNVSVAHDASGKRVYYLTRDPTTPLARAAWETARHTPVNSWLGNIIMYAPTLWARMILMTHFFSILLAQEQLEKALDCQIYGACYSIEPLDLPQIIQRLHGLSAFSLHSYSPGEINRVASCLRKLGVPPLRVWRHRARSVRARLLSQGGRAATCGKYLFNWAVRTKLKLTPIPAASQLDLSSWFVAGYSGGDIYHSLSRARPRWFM

Compound	EC50 (HCV replicon cells; Hepatitis C virus) [nM]	IC50 (HCV NS5B) [nM]	EC50 (HCV replicon cells) [nM]
CCN1C[C@H]2C[C@@H]1CN2C(=O)C12CC1c1cc(OC)ccc1-c1c(C3CCCCC3)c3ccc(C(=O)NS(=O)(=O)N(C)C)cc3n1C2 (some centres unmarked)	2.4 to 500	2.4 to 500	
COc1ccc2c(c1)C1CC1(C(=O)N1C[C@@H]3C[C@H]1CN3C(=O)OC(C)(C)C)Cn1c-2c(C2CCCCC2)c2ccc(C(=O)NS(=O)(=O)N(C)C)cc21 (some centres unmarked)	2.4 to 500	2.4 to 500	
COc1ccc2c(c1)C1CC1(C(=O)N1C[C@@H]3C[C@H]1CN3)Cn1c-2c(C2CCCCC2)c2ccc(C(=O)NS(=O)(=O)C3CC3)cc21 (some centres unmarked)		2.4 to 500	
COc1ccc2c(c1)C1CC1(C(=O)N1C[C@H]3C[C@@H]1CN3C(=O)OC(C)(C)C)Cn1c-2c(C2CCCCC2)c2ccc(C(=O)NS(=O)(=O)N(C)C)cc21 (some centres unmarked)		2.4 to 500	
COc1ccc2c(c1)C1CC1(C(=O)N1C[C@H]3C[C@@H]1CN3CC(C)C)Cn1c-2c(C2CCCCC2)c2ccc(C(=O)NS(=O)(=O)N(C)C)cc21 (some centres unmarked)	2.4 to 500	2.4 to 500	
COc1ccc2c(c1)C1CC1(C(=O)N1C3CC1CN(C)C3)Cn1c-2c(C2CCCCC2)c2ccc(C(=O)NS(=O)(=O)N3CCN(C)CC3)cc21 (centres unmarked)	2.4 to 500	2.4 to 500	
COc1ccc2c(c1)C1CC1(NC(=O)N1CC3CN(Cc4ccccc4)CC(C1)N3Cc1ccccc1)Cn1c-2c(C2CCCCC2)c2ccc(C(=O)NS(=O)(=O)N(C)C)cc21 (centres unmarked)		500 to 5000	
CCN(C)S(=O)(=O)NC(=O)c1ccc2c(C3CCCCC3)c3n(c2c1)CC1(C(=O)N2C4CC2CN(C)C4)CC1c1cc(OC)ccc1-3 (centres unmarked)	2.4 to 500	2.4 to 500	
CCN(CC)S(=O)(=O)NC(=O)c1ccc2c(C3CCCCC3)c3n(c2c1)CC1(C(=O)N2C4CC2CN(C)C4)CC1c1cc(OC)ccc1-3 (centres unmarked)	2.4 to 500	2.4 to 500	
COc1ccc2c(c1)C1CC1(C(=O)N1CCN3CCC1CC3)Cn1c-2c(C2CCCCC2)c2ccc(C(=O)NS(=O)(=O)N3CCC3)cc21 (centres unmarked)	2.4 to 500	2.4 to 500	
COc1ccc2c(c1)C1CC1(C(=O)N1C3CC1CN(C)C3)Cn1c-2c(C2CCCCC2)c2ccc(C(=O)NS(=O)(=O)N3CCOCC3)cc21 (centres unmarked)	2.4 to 500	2.4 to 500	
COc1ccc2c(c1)C1CC1(C(=O)N1C[C@H]3C[C@@H]1CN3CC(C)C)Cn1c-2c(C2CCCCC2)c2ccc(C(=O)NS(=O)(=O)C3CC3)cc21 (some centres unmarked)	2.4 to 500	2.4 to 500	
COc1ccc2c(c1)C1CC1(C(=O)N1CC3CN(C)CC(C1)N3)Cn1c-2c(C2CCCCC2)c2ccc(C(=O)NS(=O)(=O)N(C)C)cc21 (centres unmarked)	2.4 to 500	2.4 to 500	
COc1ccc2c(c1)C1CC1(C(=O)N1CC3(C)CN(C)CC(C)(C1)C3)Cn1c-2c(C2CCCCC2)c2ccc(C(=O)NS(=O)(=O)N(C)C)cc21 (centres unmarked)	2.4 to 500	2.4 to 500	
COc1ccc2c(c1)C1CC1(C(=O)N1CC3(C)CN(C)CC(C)(C1)C3)Cn1c-2c(C2CCCCC2)c2ccc(C(=O)NS(C)(=O)=O)cc21 (centres unmarked)	2.4 to 500	2.4 to 500	
COc1ccc2c(c1)C1CC1(S(=O)(=O)N1C3CC1CN(C)C3)Cn1c-2c(C2CCCCC2)c2ccc(C(=O)NS(=O)(=O)C3CC3)cc21 (centres unmarked)	2.4 to 500	2.4 to 500	
COc1ccc2c(c1)C1CC1(S(=O)(=O)N1C3CC1CN(C)C3)Cn1c-2c(C2CCCCC2)c2ccc(C(=O)NS(=O)(=O)N3CCOCC3)cc21 (centres unmarked)	2.4 to 500	2.4 to 500	
COc1ccc2c(c1)C1CC1(C(=O)N1C3CC1CN(C)C3)Cn1c-2c(C2CCCCC2)c2ccc(C(=O)NS(=O)(=O)C(C)C)cc21 (centres unmarked)	2.4 to 500	2.4 to 500	
COc1ccc2c(c1)C1CC1(C(=O)N1CC3CN(Cc4ccccc4)CC(C1)N3Cc1ccccc1)Cn1c-2c(C2CCCCC2)c2ccc(C(=O)NS(=O)(=O)N(C)C)cc21 (centres unmarked)	500 to 5000	2.4 to 500	
COc1ccc2c(c1)[C@@H]1C[C@]1(C(=O)N1CC3CC(C1)N3C)Cn1c-2c(C2CCCCC2)c2ccc(C(=O)NS(=O)(=O)N(C)C)cc21	2.4 to 500	2.4 to 500	
COc1ccc2c(c1)C1CC1(C(=O)N1CC3COCC(C1)N3Cc1ccccc1)Cn1c-2c(C2CCCCC2)c2ccc(C(=O)NS(=O)(=O)N(C)C)cc21 (centres unmarked)	2.4 to 500	2.4 to 500	
COc1ccc2c(c1)C1CC1(C(=O)N1CC3CN(C)CC(C1)N3C)Cn1c-2c(C2CCCCC2)c2ccc(C(=O)NS(=O)(=O)N(C)C)cc21 (centres unmarked)	2.4 to 500	2.4 to 500	
COc1ccc2c(c1)C1CC1(C(=O)N1CC3CN(C)CC(C1)N3C(C)=O)Cn1c-2c(C2CCCCC2)c2ccc(C(=O)NS(=O)(=O)N(C)C)cc21 (centres unmarked)	2.4 to 500	2.4 to 500	
COc1ccc2c(c1)C1CC1(C(=O)N1C3CNCC1CN(C)C3)Cn1c-2c(C2CCCCC2)c2ccc(C(=O)NS(=O)(=O)N(C)C)cc21 (centres unmarked)		2.4 to 500	
CCC(C)S(=O)(=O)NC(=O)c1ccc2c(C3CCCCC3)c3n(c2c1)CC1(C(=O)N2C4COCC2CN(C)C4)CC1c1cc(OC)ccc1-3 (centres unmarked)		2.4 to 500	
COc1ccc2c(c1)[C@@H]1C[C@]1(C(=O)N1CC3CCC1CN3C)Cn1c-2c(C2CCCCC2)c2ccc(C(=O)NS(=O)(=O)C(C)C)cc21 (some centres unmarked) [drawing 128]	2.4 to 500		
COc1ccc2c(c1)[C@@H]1C[C@]1(C(=O)N1CC3CCC1CN3C)Cn1c-2c(C2CCCCC2)c2ccc(C(=O)NS(=O)(=O)C(C)C)cc21 (some centres unmarked) [drawing 129]			2.4 to 500
